Experiments:
IgE = experiment: Determination of Igs produced in in vitro culture: inhibition of IgE secreted by spleen cells (adoptive secondary immune response to DNP-As), ELISA; format: cell-based, BALB/c mice; details: 4 days culture; for inhibition at 2.5 µg/mL: 2.5 μg/ml; for Inhibition % of IgE / inhibition at 1 µg/mL: 1.0 μg/ml; for inhibition at 5 µg/mL: 5.0 μg/ml; for inhibition at 40 µg/mL: 40.0 μg/ml; for inhibition at 0.25 µg/mL: 0.25 μg/ml
Protocol: (§1) Determination of Igs produced in in vitro culture
(§2) BALB/c mice were immunized intraperitoneally with 5 μg of DNP-As adsorbed in 4 mg aluminum hydroxide gel. 4 weeks after the immunization, the spleens were excised from the mice and 5×10^7 spleen cells were transferred intravenously into the recipient mice which had been exposed to 600 rad of X-ray irradiation. Immediately after cell transfer, the recipients were then immunized intraperitoneally with 5 μg of DNP-As adsorbed in 4 mg aluminum hydroxide gel to induce adoptive secondary immune response. Further 4 weeks after the immunization of recipients, the spleens were excised from them and the spleen cell suspensions 5×10^6 cells/ml were cultured with or without a compound to be tested in 96-well micro plates at 37° C. for 4 days. IgE and IgG secreted into the culture supernatant was each determined correspondingly by ELISA and the inhibitory effect was calculated according to the following equation. [formula]

IgG = experiment: Determination of Igs produced in in vitro culture: inhibition of IgG secreted by spleen cells (adoptive secondary immune response to DNP-As), ELISA; format: cell-based, BALB/c mice; details: 4 days culture; for inhibition at 2.5 µg/mL: 2.5 μg/ml; for Inhibition % of IgG / inhibition at 1 µg/mL: 1.0 μg/ml; for inhibition at 5 µg/mL: 5.0 μg/ml; for inhibition at 40 µg/mL: 40.0 μg/ml; for inhibition at 0.25 µg/mL: 0.25 μg/ml
Protocol: as §1, §2

## CSc1c(C#N)c(=O)n2ccccc2c1C(=O)Cc1ccc(C)cc1C [S-100, 3-Cyano-1-(2,4dimethylphenylacetyl)-2-methylthio-4H-quinolizin-4-one]
IgE; Mus musculus, 96 h
  inhibition at 2.5 µg/mL: 63%
IgG; Mus musculus, 96 h
  inhibition at 2.5 µg/mL: 34%

## CSc1c(C#N)c(=O)n2ccccc2c1C(=O)N1CCCc2ccccc21 [S-88, 3-Cyano-2-methylthio-1-(1,2,3,4-tetrahydroquinolin-1-ylcarbonyl)-4H-quinolizin-4-one]
IgE; Mus musculus, 96 h
  inhibition at 2.5 µg/mL: 40%
IgG; Mus musculus, 96 h
  inhibition at 2.5 µg/mL: 7%

## CSc1c(C#N)c(=O)n2cccc(C)c2c1C(=O)N1CCC(c2ccccc2)CC1 (single isomer, unassigned) [S-81B, 3-Cyano-9-methyl-2methylthio-1-(4-phenylpiperidinocarbonyl)-4H-quinolizin-4-one]
IgE
  Inhibition % of IgE: 50%
IgG
  Inhibition % of IgG: 4%

## CSc1c(C#N)c(=O)n2ccccc2c1C(=O)CC1CCCCC1 [S-94, 3-Cyano-1-cyclohexylacetyl-2-methylthio-4H-quinolizin-4-one]
IgE; Mus musculus, 96 h
  inhibition at 1 µg/mL: 62%
IgG; Mus musculus, 96 h
  inhibition at 1 µg/mL: 33%

## CSc1c(C#N)c(=O)n2ccccc2c1C(=O)OC(C)CCc1ccccc1 (stereo not shown) [S-46, 1'-Methyl-3'-phenylpropyl 3-cyano-2-methylthio-4H-quinolizin-4-one-1-carboxylate]
IgE; Mus musculus, 96 h
  inhibition at 1 µg/mL: 90%
IgG; Mus musculus, 96 h
  inhibition at 1 µg/mL: 79%

## CSc1c(C#N)c(=O)n2ccccc2c1C(=O)N(CC(C)C)CC(C)C [S-64, 3-Cyano-N,N-diisobutyl-2-methylthio-4H-quinolizin-4-one-1-carboxamide]
IgE; Mus musculus, 96 h
  inhibition at 5 µg/mL: 65%
IgG; Mus musculus, 96 h
  inhibition at 5 µg/mL: 41%

## CSc1c(C#N)c(=O)n2ccccc2c1C(=O)Cc1ccc(C)cc1 [S-99, 3-Cyano-1-(4-methylphenylacetyl)-2-methylthio-4H-quinolizin-4-one]
IgE; Mus musculus, 96 h, 10.0 μg/ml
  inhibition at 10 µg/mL: 52%
IgG; Mus musculus, 96 h, 10.0 μg/ml
  inhibition at 10 µg/mL: 1%

## CCOC(=O)c1c(SCc2ccccc2)c(C#N)c(=O)n2ccccc12 [S-59, Ethyl 3-cyano-2-benzylthio-4H-quinolizin-4-one-1-carboxylate]
IgE; Mus musculus, 96 h
  inhibition at 40 µg/mL: 74%
IgG; Mus musculus, 96 h
  inhibition at 40 µg/mL: 49%

## CSc1c(C#N)c(=O)n2ccccc2c1C(=O)OCc1ccc(C)c(C)c1 [S-25, 3',4'-Dimethylbenzyl 3-cyano-2-methylthio-4H-quinolizin-4-one-1-carboxylate]
IgE; Mus musculus, 96 h
  inhibition at 5 µg/mL: 75%
IgG; Mus musculus, 96 h
  inhibition at 5 µg/mL: 54%

## CSc1c(C#N)c(=O)n2ccccc2c1C(=O)CCc1ccccc1 [S-104, 3-Cyano-2-methylthio-1-(3-phenylpropionyl)-4H-quinolizin-4-one]
IgE; Mus musculus, 96 h
  inhibition at 2.5 µg/mL: 66%
IgG; Mus musculus, 96 h
  inhibition at 2.5 µg/mL: 39%

## CSc1c(C#N)c(=O)n2ccccc2c1C(=O)NCCCc1ccccc1 [S-71]
IgE; Mus musculus, 96 h
  inhibition at 5 µg/mL: 63%
IgG; Mus musculus, 96 h
  inhibition at 5 µg/mL: 35%

## CSc1c(C#N)c(=O)n2ccccc2c1C(=O)CCCc1cccs1 [S-106, 3-Cyano-2-methylthio-1-(4-thienylbutyryl)-4H-quinolizin-4-one]
IgE
  Inhibition % of IgE: 61%
IgG
  Inhibition % of IgG: 26%

## CSc1c(C#N)c(=O)n2ccccc2c1C(=O)OCC(Cl)(Cl)Cl [S-4, 2',2',2'-Trichloroethyl 3-cyano-2-methylthio-4H-quinolizin-4-one-1-carboxylate]
IgE; Mus musculus, 96 h
  inhibition at 1 µg/mL: 68%
IgG; Mus musculus, 96 h
  inhibition at 1 µg/mL: 39%

## CSc1c(C#N)c(=O)n2ccccc2c1C(=O)N1CCC(OC(C)=O)(c2ccccc2)CC1 [S-80, 1-(4-Acetoxy-4-phenylpiperidinocarbonyl)-3-cyano-methylthio-4H-quinolizin-4-one]
IgE; Mus musculus, 96 h
  inhibition at 2.5 µg/mL: 66%
IgG; Mus musculus, 96 h
  inhibition at 2.5 µg/mL: 34%

## CSc1c(C#N)c(=O)n2ccc(C)cc2c1C(=O)OC1CCCCC1 [S-18, Cyclohexyl 3-cyano-8-methyl-2-methylthio-4H-quinolizin-4-one-1-carboxylate]
IgE; Mus musculus, 96 h
  inhibition at 2.5 µg/mL: 54%
IgG; Mus musculus, 96 h
  inhibition at 2.5 µg/mL: 34%

## CSc1c(C#N)c(=O)n2ccccc2c1C(=O)CCCc1ccccc1 [S-105, 3-Cyano-2-methylthio-1-(4-phenylbutyryl)-4H-quinolizin-4one]
IgE; Mus musculus, 96 h
  inhibition at 1 µg/mL: 65%
IgG; Mus musculus, 96 h
  inhibition at 1 µg/mL: 21%

## CSc1c(C#N)c(=O)n2ccc(C)cc2c1C(=O)OCCCc1ccccc1 [S-51, 3'-Phenylpropyl 3-cyano-8methyl-2-methylthio-4H-quinolizin-4-one-1-carboxylate]
IgE; Mus musculus, 96 h
  inhibition at 1 µg/mL: 65%
IgG; Mus musculus, 96 h
  inhibition at 1 µg/mL: 43%

## C=CCN(C(=O)c1c(SC)c(C#N)c(=O)n2ccccc12)C1CCCCC1 [S-70, N-Allyl-3-cyano-N-cyclohexyl-2-methylthio-4H-quinolizin-4-one-1-carboxamide]
IgE; Mus musculus, 96 h
  inhibition at 5 µg/mL: 65%
IgG; Mus musculus, 96 h
  inhibition at 5 µg/mL: 32%

## CSc1c(C#N)c(=O)n2ccc(C)cc2c1C(=O)OCc1ccccc1 [S-28, Benzyl 3-cyano-8-menthyl-2-methylthio-4H-quinolizin-4-one-1-carboxylate]
IgE; Mus musculus, 96 h
  inhibition at 2.5 µg/mL: 49%
IgG; Mus musculus, 96 h
  inhibition at 2.5 µg/mL: 24%

## CSc1c(C#N)c(=O)n2ccccc2c1C(=O)Cc1cccc(C)c1 [S-97, 3-Cyano-1-(3-methylphenylacetyl)-2-methylthio-4H-quinolizin-4-one]
IgE; Mus musculus, 96 h
  inhibition at 2.5 µg/mL: 46%
IgG; Mus musculus, 96 h
  inhibition at 2.5 µg/mL: 18%

## CCSc1c(C#N)c(=O)n2ccccc2c1C(=O)OCCCc1ccccc1 [S-52, 3'-Phenylpropyl 3-cyano-2-ethylthio-4H-quinolizin-4-one-1-carboxylate]
IgE; Mus musculus, 96 h
  inhibition at 0.25 µg/mL: 46%
IgG; Mus musculus, 96 h
  inhibition at 0.25 µg/mL: 17%

## CSc1c(C#N)c(=O)n2ccccc2c1C(=O)OCC1CCCCC1 [S-1, Cyclohexylmethyl 3-cyano-2-methylthio-4H-quinolizin-4-one-1-carboxylate]
IgE; Mus musculus, 96 h
  inhibition at 5 µg/mL: 65%
IgG; Mus musculus, 96 h
  inhibition at 5 µg/mL: 22%

## CSc1c(C#N)c(=O)n2ccccc2c1C(=O)OCc1ccccc1 [S-29, Benzyl 3-cyano-2-methylthio-4H-quinolizin-4-one-1-carboxylate]
IgE; Mus musculus, 96 h
  inhibition at 1 µg/mL: 69%
IgG; Mus musculus, 96 h
  inhibition at 1 µg/mL: 31%

## CCCCCCN(CCCCCC)C(=O)c1c(SC)c(C#N)c(=O)n2ccccc12 [S-65, 3-Cyano-N,N-dihexyl-2-methylthio-4H-quinolizin-4-one-1-carboxamide]
IgE; Mus musculus, 96 h
  inhibition at 2.5 µg/mL: 87%
IgG; Mus musculus, 96 h
  inhibition at 2.5 µg/mL: 40%

## CSc1c(C#N)c(=O)n2ccccc2c1C(=O)OC1CCCCC1 [S-14, Cyclohexyl 3-cyano-2-methylthio-4H-quinolizin-4-one-1-carboxylate]
IgE; Mus musculus, 96 h
  inhibition at 1 µg/mL: 69%
IgG; Mus musculus, 96 h
  inhibition at 1 µg/mL: 39%

## CSc1c(C#N)c(=O)n2ccccc2c1C(=O)NC1CCCCC1 [S-72, 3-Cyano-N-cyclohexyl-2-methylthio-4H-quinolizin-4-one-1-carboxamide]
IgE; Mus musculus, 96 h
  inhibition at 5 µg/mL: 46%
IgG; Mus musculus, 96 h
  inhibition at 5 µg/mL: -5%

## CSc1c(C#N)c(=O)n2ccccc2c1C(=O)OC(C)c1ccccc1 (stereo not shown) [S-24, 1'-Phenylethyl 3-cyano-2-methylthio-4H-quinolizin-4-one-1-carboxylate]
IgE; Mus musculus, 96 h
  inhibition at 40 µg/mL: 77%
IgG; Mus musculus, 96 h
  inhibition at 40 µg/mL: 54%

## CSc1c(C#N)c(=O)n2ccccc2c1C(=O)Cc1ccccc1 [S-95, 3-Cyano-2-methylthio-1-phenylacetyl-4H-quinolizin-4-one]
IgE; Mus musculus, 96 h, 20.0 μg/ml
  inhibition at 20 µg/mL: 70%
IgG; Mus musculus, 96 h, 20.0 μg/ml
  inhibition at 20 µg/mL: 47%

## CSc1c(C#N)c(=O)n2ccccc2c1C(=O)OC1CCC1 [S-13, Cyclobutyl 3-cyano-2-methylthio-4H-quinolizin-4-one-1-carboxylate]
IgE; Mus musculus, 96 h
  inhibition at 5 µg/mL: 67%
IgG; Mus musculus, 96 h
  inhibition at 5 µg/mL: 9%

## CSc1c(C#N)c(=O)n2ccccc2c1C(=O)OCc1ccc(C(C)C)cc1 [S-36, 4'-Isopropylbenzyl 3-cyano-2-methylthio-4H-quinolizin-4-one-1-carboxylate]
IgE; Mus musculus, 96 h
  inhibition at 0.25 µg/mL: 33%
IgG; Mus musculus, 96 h
  inhibition at 0.25 µg/mL: 8%

## CCC(C)OC(=O)c1c(SC)c(C#N)c(=O)n2ccccc12 (stereo not shown) [S-10, 1'-Methylpropyl 3-cyano-2-methylthio-4H-quinolizin-4-one-1-carboxylate]
IgE; Mus musculus, 96 h
  inhibition at 2.5 µg/mL: 48%
IgG; Mus musculus, 96 h
  inhibition at 2.5 µg/mL: 27%

## C=C(C)CSc1c(C#N)c(=O)n2ccccc2c1C(=O)OCC [S-56]
IgE; Mus musculus, 96 h
  inhibition at 5 µg/mL: 70%
IgG; Mus musculus, 96 h
  inhibition at 5 µg/mL: 30%

## CSc1c(C#N)c(=O)n2ccccc2c1C(=O)Nc1ccc(Nc2ccccc2)cc1 [S-74, N-(4-Anilinophenyl)-3-cyano-2-methylthio-4H-quinolizin-4-one-1-carboxamide]
IgE; Mus musculus, 96 h
  inhibition at 2.5 µg/mL: 51%
IgG; Mus musculus, 96 h
  inhibition at 2.5 µg/mL: 10%

## CSc1c(C#N)c(=O)n2ccccc2c1C(=O)N1CCCCC1 [S-79, 3-Cyano-2-methylthio-1-piperidinocarbonyl-4H-quinolizin-4-one]
IgE; Mus musculus, 96 h
  inhibition at 40 µg/mL: 59%
IgG; Mus musculus, 96 h
  inhibition at 40 µg/mL: 13%

## CSc1c(C#N)c(=O)n2ccccc2c1C(=O)OC1CCCc2ccccc21 (stereo not shown) [S-22, 1',2',3',4'-Tetrahydro-1'-naphthyl 3-cyano-2-methylthio-4H-quinolizin-4-one-1-carboxylate]
IgE; Mus musculus, 96 h
  inhibition at 40 µg/mL: 82%
IgG; Mus musculus, 96 h
  inhibition at 40 µg/mL: 42%

## CSc1c(C#N)c(=O)n2ccccc2c1C(=O)OCCc1ccccc1 [S-48, 2'-Phenylethyl 3-cyano-2-methylthio-4H-quinolizin-4-one-1-carboxylate]
IgE; Mus musculus, 96 h
  inhibition at 1 µg/mL: 57%
IgG; Mus musculus, 96 h
  inhibition at 1 µg/mL: 15%

## CCCOC(=O)c1c(SC)c(C#N)c(=O)n2ccccc12 [S-7, Propyl 3-cyano-2-methylthio-4H-quinolizin-4-one-1-carboxylate]
IgE; Mus musculus, 96 h
  inhibition at 40 µg/mL: 52%
IgG; Mus musculus, 96 h
  inhibition at 40 µg/mL: 24%

## CSc1c(C#N)c(=O)n2ccccc2c1C(=O)OCC1CC1 [S-2, Cyclopropylmethyl 3-cyano-2-methylthio-4H-quinolizin-4-one-1-carboxylate]
IgE; Mus musculus, 96 h
  inhibition at 5 µg/mL: 51%
IgG; Mus musculus, 96 h
  inhibition at 5 µg/mL: 27%
